For experiment [1], the system named is HCT-116. Description: Cell cycle arrest in human HCT-116 cells assessed as accumulation at G1/G0 phase at 5 uM measured after 24 hrs by propidium iodide staining based flow cytometry (reference value: 65%). The format is functional. A general note: In flow cytometry, cells or beads pass a laser one at a time.
In experiment [2] the test system is HCT-116. Description: Cell cycle arrest in human HCT-116 cells assessed as accumulation at S phase at 2.5 uM measured after 24 hrs by propidium iodide staining based flow cytometry (reference value: 7.2%). The class given is functional.
In experiment [3] the test system is HCT-116. The experiment can be described thus: Cell cycle arrest in human HCT-116 cells assessed as accumulation at sub-G1 phase at 1.25 uM measured after 24 hrs by propidium iodide staining based flow cytometry (reference value: 8.7%). The format is functional.
Experiment [4] concerns HCT-116. Description: Cell cycle arrest in human HCT-116 cells assessed as accumulation at G1/G0 phase at 1.25 uM measured after 24 hrs by propidium iodide staining based flow cytometry (reference value: 65%). The format is functional.
The subject of experiment [5] is HCT-116. The experiment can be described thus: Cell cycle arrest in human HCT-116 cells assessed as accumulation at S phase at 5 uM measured after 24 hrs by propidium iodide staining based flow cytometry (reference value: 7.2%). The format is functional.
In experiment [6] the test system is HCT-116. Description: Cell cycle arrest in human HCT-116 cells assessed as accumulation at S phase at 5 uM measured after 48 hrs by propidium iodide staining based flow cytometry (reference value: 10.4%). The format is functional.
In experiment [7] the test system is HCT-116. Description: Cell cycle arrest in human HCT-116 cells assessed as accumulation at G1/G0 phase at 2.5 uM measured after 48 hrs by propidium iodide staining based flow cytometry (reference value: 52.2%). The class given is functional.
The subject of experiment [8] is HCT-116. The experiment can be described thus: Cell cycle arrest in human HCT-116 cells assessed as accumulation at sub-G1 phase at 1.25 uM measured after 48 hrs by propidium iodide staining based flow cytometry (reference value: 17%). The class given is functional.
The subject of experiment [9] is HCT-116. The experiment can be described thus: Cell cycle arrest in human HCT-116 cells assessed as accumulation at G1/G0 phase at 5 uM measured after 48 hrs by propidium iodide staining based flow cytometry (reference value: 52.2%). The format is functional.
In experiment [10] the test system is HCT-116. The experiment can be described thus: Cell cycle arrest in human HCT-116 cells assessed as accumulation at G2/M phase at 2.5 uM measured after 48 hrs by propidium iodide staining based flow cytometry (reference value: 20.4%). The class given is functional.
Experiment [11] deals with RAF proto-oncogene serine/threonine-protein kinase (Homo sapiens, UniProt P04049). Description: Inhibition of human CRAF at 10 uM using MEK1 (K97R) as substrate in presence of [gamma-33P]ATP by scintillation counting method relative to control.
Chain of RAF proto-oncogene serine/threonine-protein kinase (P04049 whole entry): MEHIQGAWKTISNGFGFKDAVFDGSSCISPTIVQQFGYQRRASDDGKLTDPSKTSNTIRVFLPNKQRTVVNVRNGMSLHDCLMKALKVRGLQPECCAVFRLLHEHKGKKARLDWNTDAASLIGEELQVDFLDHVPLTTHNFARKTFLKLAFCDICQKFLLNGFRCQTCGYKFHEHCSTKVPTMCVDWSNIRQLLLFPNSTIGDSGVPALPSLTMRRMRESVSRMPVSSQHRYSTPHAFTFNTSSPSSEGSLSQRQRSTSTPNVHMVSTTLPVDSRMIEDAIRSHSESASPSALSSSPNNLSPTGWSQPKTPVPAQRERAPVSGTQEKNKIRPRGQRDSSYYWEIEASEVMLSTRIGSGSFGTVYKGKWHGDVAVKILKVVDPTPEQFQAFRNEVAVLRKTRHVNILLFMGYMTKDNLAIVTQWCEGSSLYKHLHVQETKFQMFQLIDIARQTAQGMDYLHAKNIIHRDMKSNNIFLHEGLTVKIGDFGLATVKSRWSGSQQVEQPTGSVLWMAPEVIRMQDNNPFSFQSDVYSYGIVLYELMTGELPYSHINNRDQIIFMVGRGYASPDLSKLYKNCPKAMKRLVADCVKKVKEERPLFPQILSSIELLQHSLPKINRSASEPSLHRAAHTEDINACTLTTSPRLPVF
In experiment [12] the test system is HCT-116. Description: Cell cycle arrest in human HCT-116 cells assessed as accumulation at S phase at 2.5 uM measured after 48 hrs by propidium iodide staining based flow cytometry (reference value: 10.4%). The class given is functional.
The test system of experiment [13] is HCT-116. Description: Cell cycle arrest in human HCT-116 cells assessed as accumulation at G1/G0 phase at 1.25 uM measured after 48 hrs by propidium iodide staining based flow cytometry (reference value: 52.2%). The class given is functional.

For orientation: inhibition means the share of the control response that was lost under treatment.

Regarding `COc1cccc2nc(Nc3cccc(NC(=O)c4ccc(N5CCN(C)CC5)c(C(F)(F)F)c4)c3)ccc12`, the Activity in the experiment on HCT-116 [1] was 71%; in the experiment on HCT-116 [2], 7.3%; in the experiment with HCT-116 [3], 9.6%; in the experiment on HCT-116 [4] it was 66.6%; in the experiment with HCT-116 [5], 6.3%.

`CCN1CCN(c2cc(C(=O)Nc3cccc(Nc4ccc5c(OC)cccc5n4)c3)cc(C(F)(F)F)c2)CC1`: the Activity turned out to be 7.4% with HCT-116 [6]; 57.1% with HCT-116 [7]; 21% in the experiment on HCT-116 [8]; 64.1% in the experiment on HCT-116 [9]; 12.9% in the experiment on HCT-116 [10]; 9.2% with HCT-116 [12]. For the same compound, the Activity in the experiment on HCT-116 [13] was determined as 54.7%. The inhibition in experiment [11] was determined as 94.4%.

These data come from ChEMBL document CHEMBL4706583, “2-Anilinoquinoline based arylamides as broad spectrum anticancer agents with B-RAF/C-RAF kinase inhibitory effects: Design, synthesis, in vitro cell-based and oncogenic kinase assessments” (Eur J Med Chem, 2020).
